Patent US20250302792A1, “ACTIVE SUBSTANCES FOR MEDICAL USE” (inflamed pharma GmbH, priority 2022, published 2025)
Structures can show the parent of a compound that is named as a salt. Where two headings read alike, the source gives them in different places.

Assays:
[1] = Solubility in octanol, content by UV/VIS spectroscopy and pH; assay type: physicochemical; conditions: for pH: solubility test in octanol
Protocol: Solubility tests in octanol were conducted, and the content in the organic phase was examined by UV/VIS spectroscopy, as were the pH values.

[2] = tested on: influenza virus A/Puerto Rico/8/34 (IAV); assay type: cell-based
[3] = tested on: influenza virus A/Puerto Rico/8/34; assay type: cell-based
A. fumigatus [4] = assay type: cell-based, Aspergillus fumigatus
A. fumigatus [5] = assay type: cell-based, Aspergillus fumigatus; remark: listed apart in the source
A. fumigatus [6] = assay: Hyphae formation of GFP-expressing A. fumigatus conidia in DMEM/BA medium (FIG. 1); assay type: cell-based, Aspergillus fumigatus; conditions: procaine HCl 0.31 or 1.25-10 mM, 10 h, 37° C.
Protocol: (A) Procedure for the treatment method: conidia of a green-fluorescence protein (GFP)-expressing A. fumigatus strain [5*10^6 conidia/well] were sown on cover slips in 24-well plates in 300 μl of DMEM/BA medium (0.2% BSA, 1 mM MgCl2 and 0.9 mM CaCl2) and, in each case supplemented with solvent (H2O), procaine HCl [0.31 (B) or 1.25 (C)—10 mM] or voriconazole [0.2 μg ml^−1], incubated at 37° C., 5% CO2, for 10 h. Subsequently, the fungi were fixed (3.7% formaldehyde in PBS, 30 min, room temperature) and applied to microscope slides with the aid of fluorescent dye solution (Agilent, Santa Clara, CA, USA). The hyphae size was analyzed by (B) Axio Observer.Z1 microscope (Zeiss, Jena, Germany) and the Fiji V 1.52b software (github.com/fiji/fiji). (C) Fungus size was calculated with the particle counter software (github.com/chko90/particle counter). The data are a representation of four experiments (B) or the mean+SD of four experiments with two technical samples in each case (C). Statistical significance was calculated with GraphPad Prism 9.2 (Graphpad Software, Boston, USA) using the one-way ANOVA Dunnett multiple comparison test. P values are indicated by asterisks *p<0.05.

A. fumigatus [7] = assay: Hyphae formation of A. fumigatus in a human cell-free system, DMEM with 10% FCS (FIG. 4); assay type: cell-based, Aspergillus fumigatus; conditions: 10 h
Protocol: (A) Procedure for the treatment method: conidia of a GFP-expressing A. fumigatus strain [5*10^6 conidia/well] was sown on cover slips in 24-well plates and incubated with solvent (H2O) or with the specified concentrations of voriconazole, ProcCluster® (B-C) or procaine HCl (D-E) in DMEM with 10% FCS at 37° C., 5% CO2, for 10 h. Subsequently, the fungi were fixed (3.7% formaldehyde in PBS, 1 h, room temperature) and applied to microscope slides with fluorescent dye solution (Agilent, Santa Clara, CA, USA). (B, D) The growth of A. fumigatus was visualized via internal GFP expression. The scale of the immunofluorescence images corresponds to 100 μm. Detection of immunofluorescence and imaging and image processing were effected with an Axio Observer.Z1 microscope (Zeiss, Jena, Germany) and the Fiji V 1.52b software (github.com/fiji/fiji). (C, E) Fungus size was determined by means of the particle counter software (github.com/chko90/particle counter). Five immunofluorescence images were taken for each sample. The fungus sizes ascertained were normalized and the solvent control was set at 100%. Statistical significance was ascertained by a one-way ANOVA test with Dunnett multiple comparison test using GraphPad Prism 9.2 (Graphpad Software, Boston, USA) (p<0.05 was considered to be the level of statistical significance).

Structure (SMILES)	membrane permeability concluded from solubility in the organic phase ([1]; octanol)	Content (solubility in octanol, content in the organic phase) ([1]; octanol, UV/VIS spectroscopy) [%]	pH [1]	virus load [2]	pathogenic load of influenza viruses [3]	pathogenic load of A. fumigatus (A. fumigatus [4])	hyphae formation (A. fumigatus [5])	Content (solubility in octanol, content in the organic phase) ([1]; octanol, UV/VIS spectroscopy, hydrochloride) [%]	Content (solubility in octanol, content in the organic phase) ([1]; octanol, UV/VIS spectroscopy, listed as Procaine HCl, hydrochloride) [%]	pH ([1]; hydrochloride)	hyphae formation by A. fumigatus (A. fumigatus [6])	hyphae formation (A. fumigatus [7])	Content (solubility in octanol, content in the organic phase) [1]
CCN(CC)CCOC(=O)c1ccc(N)cc1.O=C(O)O [Carbonic acid adduct of procaine]	membrane-permeable	74	7.5	–	–	–	–	–	–	–	–	–	–
CCN(CC)CCOC(=O)c1ccc(N)cc1 [Procaine hydrochloride, procaine hydrochloride]	–	–	–	reduced virus load	reduced	reduced	reduced	8	8	4.5	reduces hyphae formation	reduced hyphae formation	–
CCN(CC)CCOC(=O)c1ccc(N)cc1 [Procaine, 2-(N,N-diethylamino)ethyl 4-aminobenzoate]	–	–	8.5	–	–	–	–	–	–	–	–	–	completely dissolved (100%)
